Laboratory results reported in patent US9302999B2, “Substituted triazoles as herbicides” (E. I. DU PONT DE NEMOURS AND COMPANY, priority 2012, dated 2016).

Assays:
Format in all cases: in vivo
[1] = system: barnyardgrass (Echinochloa crus-galli); assay: Test B flooded paddy: barnyardgrass; settings: Flood; 125 g ai/ha; applied to paddy water at 2-leaf stage; visually evaluated after 13 to 15 days
Summary of the method: (§1)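 Plants were grown to the 2-leaf stage and pots flooded to 3 cm above soil. Compounds were applied directly into the paddy water, with depth kept for the test. After 13–15 days in greenhouse, response was rated visually against controls on a 0 (no effect) to 100 (complete control) scale.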

[2] = system: ducksalad (Heteranthera limosa); assay: Test B flooded paddy: ducksalad; settings: Flood; 125 g ai/ha; applied to paddy water at 2-leaf stage; visually evaluated after 13 to 15 days
Summary of the method: as §1

[3] = system: sedge, umbrella (small-flower umbrella sedge Cyperus difformis); assay: Test B flooded paddy: sedge, umbrella; settings: Flood; 125 g ai/ha; applied to paddy water at 2-leaf stage; visually evaluated after 13 to 15 days
Summary of the method: as §1

[4] = system: foxtail, giant (giant foxtail, Setaria faberii); assay: Test A pre-/postemergence: foxtail, giant
Summary of the method: (§2)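 Whole-plant greenhouse assay in loam/sand. Preemergence directed soil spray plus simultaneous postemergence spray (one- to two-leaf stage, 2–10 cm). Rated visually ~10 days later, 0 = no effect, 100 = complete control.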

corn (Zea mays) = assay: Test A pre-/postemergence: corn
Summary of the method: as §2

[5] = system: barnyardgrass (Echinochloa crus-galli); assay: Test A pre-/postemergence: barnyardgrass
Summary of the method: as §2

[6] = system: pigweed (Amaranthus retroflexus); assay: Test A pre-/postemergence: pigweed
Summary of the method: as §2

rice (Oryza sativa) = assay: Test B flooded paddy: rice; settings: Flood; 125 g ai/ha; applied to paddy water at 2-leaf stage; visually evaluated after 13 to 15 days
Summary of the method: as §1

[7] = system: crabgrass, large (large crabgrass, Digitaria sanguinalis); assay: Test A pre-/postemergence: crabgrass, large
Summary of the method: as §2

[8] = system: velvetleaf (Abutilon theophrasti); assay: Test A pre-/postemergence: velvetleaf
Summary of the method: as §2

[9] = system: wheat (Triticum aestivum); assay: Test A pre-/postemergence: wheat
Summary of the method: as §2

[10] = system: morningglory (Ipomoea spp.); assay: Test A pre-/postemergence: morningglory
Summary of the method: as §2

[11] = Postemergence, 125 g ai/ha, 0 to 100 scale, 0 is no effect, 100 is complete control
[12] = Postemergence, 500 g ai/ha, 0 to 100 scale, 0 is no effect, 100 is complete control
[13] = Preemergence, 125 g ai/ha, 0 to 100 scale where 0 is no effect and 100 is complete control
[14] = Preemergence, 500 g ai/ha, 0 to 100 scale (0 no effect, 100 complete control)

SMILES | Plant response rating, Barnyardgrass (0 to 100 scale, 0 is no effect, 100 is complete control) [1] | Plant response rating, Ducksalad (0 to 100 scale, 0 is no effect, 100 is complete control) [2] | Plant response rating, Sedge, Umbrella (0 to 100 scale, 0 is no effect, 100 is complete control) [3] | Plant response rating, Foxtail, Giant [4, 11] | Foxtail, Giant plant response rating [4, 12] | Plant response rating, Foxtail, Giant [4, 13] | Plant response rating, Foxtail, Giant [4, 14] | Plant response rating, Corn (corn (Zea mays); [11]) | Corn plant response rating (corn (Zea mays); [12]) | Plant response rating, Corn (corn (Zea mays); [13]) | Plant response rating, Corn (corn (Zea mays); [14]) | Plant response rating, Barnyardgrass [5, 11] | Barnyardgrass plant response rating [5, 12] | Plant response rating, Barnyardgrass [5, 13] | Plant response rating, Barnyardgrass [5, 14] | Plant response rating, Pigweed [6, 11] | Pigweed plant response rating [6, 12] | Plant response rating, Pigweed [6, 13] | Plant response rating, Pigweed [6, 14] | Plant response rating, Rice (0 to 100 scale, 0 is no effect, 100 is complete control) (rice (Oryza sativa)) | also measured
CC(C)(C)c1nn(-c2ccc(F)cc2)nc1C(=O)c1ccnc(C(F)(F)F)c1 [Compound 175] | 0 | 0 | 0 | 0 | 0 | 0 | 0 | 0 | 0 | 0 | 0 | 0 | 0 | 0 | 0 | 0 | 0 | 0 | 0 | 0 | Plant response rating, Crabgrass, Large [7, 11]: 0; Crabgrass, Large plant response rating [7, 12]: 0; Plant response rating, Crabgrass, Large [7, 13]: 0; Plant response rating, Crabgrass, Large [7, 14]: 0; Plant response rating, Velvetleaf [8, 11]: 0; Velvetleaf plant response rating [8, 12]: 0; Plant response rating, Velvetleaf [8, 13]: 0; Plant response rating, Velvetleaf [8, 14]: 0; Plant response rating, Wheat [9, 11]: 0; Wheat plant response rating [9, 12]: 0; Plant response rating, Wheat [9, 13]: 0; Plant response rating, Wheat [9, 14]: 0; Plant response rating, Morningglory [10, 11]: 0; Morningglory plant response rating [10, 12]: 0; Plant response rating, Morningglory [10, 13]: 0; Plant response rating, Morningglory [10, 14]: 0
CCc1nn(-c2ccc(F)cc2F)nc1Oc1ccnc(C(F)(F)F)c1 [Compound 178] | 0 | 30 | 60 | 60 | 90 | 90 | 100 | 20 | 30 | 0 | 10 | 30 | 80 | 20 | 100 | 100 | 100 | 100 | 100 | 20 | Plant response rating, Crabgrass, Large [7, 11]: 90; Crabgrass, Large plant response rating [7, 12]: 90; Plant response rating, Crabgrass, Large [7, 13]: 90; Plant response rating, Crabgrass, Large [7, 14]: 100; Plant response rating, Velvetleaf [8, 11]: 60; Velvetleaf plant response rating [8, 12]: 100; Plant response rating, Velvetleaf [8, 13]: 10; Plant response rating, Velvetleaf [8, 14]: 60; Plant response rating, Wheat [9, 11]: 20; Wheat plant response rating [9, 12]: 40; Plant response rating, Wheat [9, 13]: 0; Plant response rating, Wheat [9, 14]: 10; Plant response rating, Morningglory [10, 11]: 90; Morningglory plant response rating [10, 12]: 100; Plant response rating, Morningglory [10, 13]: 0; Plant response rating, Morningglory [10, 14]: 60
CC(C)Cc1nn(-c2ccc(C(F)(F)F)cc2)nc1Oc1ccnc(C(F)(F)F)c1 [Compound 186] | 0 | 0 | 0 | 0 | 0 | 0 | 0 | 10 | 20 | 0 | 0 | 0 | 0 | 0 | 0 | 20 | 60 | 0 | 0 | 0 | Plant response rating, Crabgrass, Large [7, 11]: 0; Crabgrass, Large plant response rating [7, 12]: 0; Plant response rating, Crabgrass, Large [7, 13]: 0; Plant response rating, Crabgrass, Large [7, 14]: 0; Plant response rating, Velvetleaf [8, 11]: 0; Velvetleaf plant response rating [8, 12]: 20; Plant response rating, Velvetleaf [8, 13]: 0; Plant response rating, Velvetleaf [8, 14]: 0; Plant response rating, Wheat [9, 11]: 0; Wheat plant response rating [9, 12]: 0; Plant response rating, Wheat [9, 13]: 0; Plant response rating, Wheat [9, 14]: 0; Plant response rating, Morningglory [10, 11]: 0; Morningglory plant response rating [10, 12]: 10; Plant response rating, Morningglory [10, 13]: 0; Plant response rating, Morningglory [10, 14]: 0
CC(C)Cc1nn(-c2ccc(C(F)(F)F)cc2)nc1Oc1ccnc(C(F)F)c1 [Compound 187] | 0 | 0 | 0 | 0 | 0 | 0 | 0 | 0 | 0 | 0 | 0 | 0 | 0 | 0 | 0 | 0 | 0 | 0 | 0 | 0 | Plant response rating, Crabgrass, Large [7, 11]: 0; Crabgrass, Large plant response rating [7, 12]: 0; Plant response rating, Crabgrass, Large [7, 13]: 0; Plant response rating, Crabgrass, Large [7, 14]: 0; Plant response rating, Velvetleaf [8, 11]: 0; Velvetleaf plant response rating [8, 12]: 0; Plant response rating, Velvetleaf [8, 13]: 0; Plant response rating, Velvetleaf [8, 14]: 0; Plant response rating, Wheat [9, 11]: 0; Wheat plant response rating [9, 12]: 0; Plant response rating, Wheat [9, 13]: 0; Plant response rating, Wheat [9, 14]: 0; Plant response rating, Morningglory [10, 11]: 0; Morningglory plant response rating [10, 12]: 0; Plant response rating, Morningglory [10, 13]: 0; Plant response rating, Morningglory [10, 14]: 0
